Data set [1] is described as follows: Plasma pharmacokinetics of irinotecan and SN-38 in patients. To be noted: for Tlast: median; for Tmax: median (range), n=18–20 paired. On the procedure: (§1) In cycle 1, sunitinib administration started on day 2. Both agents were evaluated in combination on cycle 2 day 1; samples were drawn before drug administration and at 1, 1.5, 2, 4, 6, 8, 10, and 24 hours post-dose.
(§2) Pharmacokinetic parameter values were calculated for each subject by noncompartmental analysis of concentration–time data using WinNonlin version 4.1 (http://pharmacy.ucsf.edu/irc/pdfs/wul_users_guide.pdf). […] Summary descriptives of pharmacokinetic values were presented only for paired observations with respect to each analyte. In the case where the dose for one of the paired observations was different from the other observation, dose correction to the intended dose was performed (correction factor: intended dose/actual dose). Dose correction to the MTD was performed. Individual patient trough plasma concentrations were summarised per cycle and study day. All concentrations that were below the limits of quantitation (BLQ) were set to zero before computation of descriptive statistics (BLQ values were excluded from the calculations of geometric means and the associated 95% confidence intervals).
(§3) Standard plasma pharmacokinetic parameters were used including the maximum plasma concentration (Cmax), time to Cmax (Tmax), area under the plasma concentration–time curve to the time of the last measurable concentration (AUC0–last) or infinity (AUC0–∞), clearance, and terminal elimination half-life (t1/2).

The conditions of data set [2]: for Patients requiring dose delay / Patients with dose reduction: irinotecan; for Patients requiring dose delay: cycles 1 and 2; for Patients with dose reduction: first two cycles. On the procedure:
Seven days before the start of cycle 1, a single day's dose of sunitinib was administered to allow for the collection of samples for pharmacokinetic analysis.
In addition, prophylactic use of hematopoietic growth factors to support neutrophil or platelet counts was not recommended in cycle 1, but could be used in subsequent cycles.
Patients underwent regular physical examinations (usually on day 1 of each treatment cycle), laboratory tests (blood, usually on days 1 and 15 of each cycle, and urinalysis) and 12-lead electrocardiogram (at screening, at steady state level of sunitinib on cycle 2 day 1, and as clinically indicated in subsequent cycles). […] Response Evaluation Criteria for Solid Tumors version 1.0 ([Therasse et al 2000]) was used, requiring repeat imaging studies ⩾4 weeks after the initial documentation of response.

Data set [3] in a line: Plasma pharmacokinetics of sunitinib, SU012662 and total drug in patients. To be noted: human, in vivo. The protocol: Pharmacokinetic analysis was carried out in a central laboratory, and pharmacokinetic parameter values were estimated using noncompartmental methods. Human potassium EDTA plasma pharmacokinetic samples were analysed for sunitinib and SU012662 and total drug (sunitinib plus SU012662) concentrations at BASi (West Lafayette, IN, USA) with the use of a validated, sensitive, and specific liquid chromatographic-tandem mass spectrometric method.
as §1, §2, §3

Where [4] appears, read: C2D1/C1D1 (sunitinib+irinotecan relative to irinotecan alone), both cohorts combined.

Like-named read-outs stand apart in the source and are kept apart here.

The text below walks through data of paper PMC2965864 (British Journal of Cancer, 2010).

For orientation: AUC(0-t) means exposure summed from dosing to a finite time, without extrapolation to infinity. In general, AUC(0-inf) refers to the area under the concentration-time curve extrapolated to infinity. In the case of `CCc1c2c(nc3ccc(OC(=O)N4CCC(N5CCCCC5)CC4)cc13)-c1cc3c(c(=O)n1C2)COC(=O)[C@]3(O)CC` [Irinotecan, irinotecan], the Tlast in data set [1] (Irinotecan alone C1D1) amounted to 24.0 h. Further, in data set [1] (Sunitinib+irinotecan C2D1), the Tlast is given as 24.0 h. In addition, in data set [1] (human, in vivo), the “AUC0–last” value is 16.9 (33.3) μg h ml^−1 and the “AUC0–∞” value is 18.1 (34.0) μg h ml^−1. For the same compound, the Cmax in data set [1] (human, in vivo, 250 mg) came out at 2900 ng/mL. In addition, the AUC(0-t) in data set [1] (human, in vivo, AUC0–last) came to 14900 ng·h/mL. Further, the AUC(0-inf) in data set [1] (human, in vivo, AUC0–∞) was 15900 ng·h/mL. In addition, in data set [2] (irinotecan day 1 of 21-day cycle, with sunitinib 25 mg per day days 1–14), the “Maximum tolerated dose (MTD)” value was 250 mg m^−2. Moreover, in data set [2] (cohort 1), the “Patients requiring dose delay” value is given as “four” and the “Patients with dose reduction” value is “six”. Also, in data set [2] (cohort 2), the “Patients requiring dose delay” value is reported as “one” and the “Patients with dose reduction” value is recorded as “one”.
In the case of `CCc1c2c(nc3ccc(O)cc13)-c1cc3c(c(=O)n1C2)COC(=O)[C@]3(O)CC` [SN-38], in data set [1] (setting [4]), the “Geometric mean ratio of AUC0–last” value was found to be 1.20. In addition, in data set [1] (setting [4]), the “Geometric mean ratio of Cmax” value was found to be 1.13. The “AUC0–last” value was 0.31 (61.7) μg h ml^−1 in data set [1] (Irinotecan alone C1D1, mean (CV%)) and 0.36 (52.8) μg h ml^−1 in data set [1] (Sunitinib+irinotecan C2D1, mean (CV%)). Besides, the Cmax was 0.03 (51.4) μg ml^−1 in data set [1] (Irinotecan alone C1D1, mean (CV%), dose corrected to 250 mg m^−2) and 0.04 (50.0) μg ml^−1 in data set [1] (Sunitinib+irinotecan C2D1, mean (CV%), dose corrected to 250 mg m^−2). In addition, the Tlast in data set [1] (Irinotecan alone C1D1) and in data set [1] (Sunitinib+irinotecan C2D1) was 24.0 h each time. Further, the Tmax in data set [1] (Irinotecan alone C1D1) is given as 1.1 (1.0–4.2) h; in data set [1] (Sunitinib+irinotecan C2D1) it was 1.5 (0.9–4.1) h.
With `CCNCCNC(=O)c1c(C)[nH]c(/C=C2\C(=O)Nc3ccc(F)cc32)c1C` [SU012662], in data set [3], the “AUC0–last” value is 53.2 (30.9) ng h ml^−1, the Cmax is reported as 3.6 (32.5) ng ml^−1 and the Tlast was 24.0 h. Also, in data set [3] (25 mg), the “AUC0–last” value was 38.6 (54.4) ng h ml^−1 and the Cmax is recorded as 2.4 (51.4) ng ml^−1.
As for `CCN(CC)CCNC(=O)c1c(C)[nH]c(/C=C2\C(=O)Nc3ccc(F)cc32)c1C` [Sunitinib, sunitinib], in data set [3], the AUC(0-t) came out at 226 ng·h/mL, the Cmax came out at 13 ng/mL and the Tlast was 24.0 h. Also, in data set [3] (25 mg), the AUC(0-t) was determined as 266 ng·h/mL and the Cmax was 16.3 ng/mL. Further, the “Maximum tolerated dose (MTD)” value in data set [2] (sunitinib days 1–14 of 21-day cycle, with irinotecan 250 mg m^−2 day 1) is 25 mg per day.
